Measurements from US8642808B2, “Bis-aryl sulfonamides” (ChemoCentryx, Inc., priority 2002, dated 2014).

The compounds below were run against T1, CCR9 (Homo sapiens, UniProt P51686) (assay: chemotaxis (conventional migration) assay and/or calcium mobilization (calcium flux) assay, TECK-stimulated MOLT-4 cells). Conditions: TECK-induced migration and/or calcium signal, read-out: activity (IC50) in either or both of the chemotaxis assay and calcium mobilization assays.
T1 construct: CCR9-expressing cells (such as a T cell line MOLT-4 cells); host or cells: MOLT-4
T1 sequence (P51686 1-369): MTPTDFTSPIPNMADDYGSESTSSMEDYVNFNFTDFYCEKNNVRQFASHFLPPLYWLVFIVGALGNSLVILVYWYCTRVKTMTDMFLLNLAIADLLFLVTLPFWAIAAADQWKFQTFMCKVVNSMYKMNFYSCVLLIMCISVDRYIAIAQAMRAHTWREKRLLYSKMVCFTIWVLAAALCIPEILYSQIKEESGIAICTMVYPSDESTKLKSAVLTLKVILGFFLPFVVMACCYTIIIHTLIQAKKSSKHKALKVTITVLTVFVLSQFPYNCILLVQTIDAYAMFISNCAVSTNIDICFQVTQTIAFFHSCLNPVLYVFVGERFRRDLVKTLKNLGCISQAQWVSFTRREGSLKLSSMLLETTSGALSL
Assay type: cell-based
Description: MOLT-4 cells were obtained from the American Type Culture Collection (Manassas, Va.) and cultured in RPMI tissue culture medium supplemented with 10% fetal calf serum (FCS) in a humidified 5% CO2 incubator at 37° C. Recombinant human chemokine protein TECK was obtained from R&D Systems (Minneapolis, Minn.). ChemoTX® chemotaxis microchambers were purchased from Neuro Probe (Gaithersburg, Md.). CyQUANT® cell proliferation kits were purchased from Molecular Probes (Eugene, Oreg.). Calcium indicator dye Fluo-4 AM was purchased from Molecular Devices (Mountain View, Calif.).
Conventional migration assay was used to determine the efficacy of potential receptor antagonists in blocking migration mediated through CCR9. This assay was routinely performed using the ChemoTX® microchamber system with a 5-μm pore-sized polycarbonate membrane. To begin such an assay, MOLT-4 cells were harvested by centrifugation of cell suspension at 1000 PRM on a GS-6R Beckman centrifuge. The cell pellet was resuspended in chemotaxis buffer (HBSS with 0.1% BSA) at 5×10^6 cells/mL. Test compounds at desired concentrations were prepared from 10 mM stock solutions by serial dilutions in chemotaxis buffer. An equal volume of cells and compounds were mixed and incubated at room temperature for 15 minutes. Afterwards, 20 μL of the mixture was transferred onto the porous membrane of a migration microchamber, with 29 μL of 50 nM chemokine TECK protein placed at the lower chamber. Following a 150-minute incubation at 37° C., during which cells migrated against the chemokine gradient, the assay was terminated by removing the cell drops from atop the filter. To quantify cells migrated across the membrane, 5 μL of 7X CyQUANT® solution was added to each well in the lower chamber, and the fluorescence signal measured on a Spectrafluor Plus fluorescence plate reader (TECAN, Durham, N.C.). The degree of inhibition was determined by comparing migration signals between compound-treated and untreated cells. IC50 calculation was further performed by non-linear squares regression analysis using Graphpad Prism (Graphpad Software, San Diego, Calif.).
Calcium flux assay measures an increase in intracellular calcium following ligand-induced receptor activation. In the screen of CCR9 antagonists, it was used as a secondary assay carried out on a FLIPR® machine (Molecular Devices, Mountain View, Calif.). To begin an assay, MOLT-4 cells were harvested by centrifugation of cell suspension, and resuspended to 1.5×10^6 cells/mL in HBSS (with 1% fetal calf serum). Cells were then labeled with a calcium indicator dye Fluo-4 AM for 45 minutes at 37° C. with gentle shaking. Following incubation, cells were pelletted, washed once with HBSS and resuspended in the same buffer at a density of 1.6×10^6 cells/mL. One hundred microliters of labeled cells were mixed with […] of test compound at the appropriate concentrations on an assay plate. Chemokine protein TECK was added at a final concentration of 25 nM to activate the receptor. The degree of inhibition was determined by comparing calcium signals between compound-treated and untreated cells. IC50 calculations were further performed by non-linear squares regression analysis using Graphpad Prism (Graphpad Software, San Diego, Calif.).
In the table below, structures and activity are provided for representative compounds described herein. Activity is provided as follows for either or both of the chemotaxis assay and/or calcium mobilization assays, described above: + 1000 nM<IC50<10000 nM; ++, 100 nM<IC50<1000 nM; and +++, IC50<100 nM.

Row | IC50 [nM] | Compound
1 | < 100 | CC(C)(C)c1ccc(S(=O)(=O)Nc2ccc(Cl)cc2C(=O)c2ccccc2)cc1
2 | < 100 | COc1ccc(S(=O)(=O)Nc2ccc(Br)cc2C(=O)c2ccccc2)cc1
3 | < 100 | CC(C)(C)c1ccc(S(=O)(=O)Nc2cc(Cl)ccc2C(=O)c2ccccc2)cc1
4 | < 100 | COc1ccc(S(=O)(=O)Nc2ccc(F)cc2C(=O)c2ccccc2)cc1
5 | < 100 | CS(=O)(=O)c1ccc(S(=O)(=O)Nc2ccc(Cl)cc2C(=O)c2ccccc2)cc1
6 | < 100 | O=C(c1ccccc1)c1cc(Cl)ccc1NS(=O)(=O)c1ccc(-c2cnco2)cc1
7 | < 100 | C=Cc1ccc(S(=O)(=O)Nc2ccc(Cl)cc2C(=O)c2ccccc2)cc1
8 | < 100 | O=C(c1ccccc1)c1cc(Cl)ccc1NS(=O)(=O)c1ccc(I)cc1
9 | < 100 | CCc1ccc(S(=O)(=O)Nc2ccc(Br)cc2C(=O)c2ccccc2)cc1
10 | < 100 | O=C(c1ccccc1)c1cc(Cl)ccc1NS(=O)(=O)c1ccc(C(F)(F)F)cc1
11 | < 100 | O=C(c1ccccc1)c1cc(Br)ccc1NS(=O)(=O)c1ccc(-c2cocn2)cc1
12 | < 100 | CCc1ccc(S(=O)(=O)Nc2ccc(Cl)cc2C(=O)c2ccccc2)cc1
13 | < 100 | CC(C)Oc1ccc(S(=O)(=O)Nc2ccc(Cl)cc2C(=O)c2ccccc2)cc1
14 | < 100 | CC(=O)c1ccc(S(=O)(=O)Nc2ccc(Br)cc2C(=O)c2ccccc2)cc1
15 | < 100 | O=C(c1ccccc1)c1cc(Cl)ccc1NS(=O)(=O)c1ccc(OC(F)(F)F)cc1
16 | < 100 | COC(=O)CCc1ccc(S(=O)(=O)Nc2ccc(Cl)cc2C(=O)c2ccccc2)cc1
17 | < 100 | CC(C)(C)c1ccc(S(=O)(=O)Nc2ccc(Br)cc2C(=O)c2ccccc2)cc1
18 | < 100 | CC(=O)c1ccc(S(=O)(=O)Nc2ccc(Cl)cc2C(=O)c2ccccc2)cc1
19 | < 100 | CCC(C)(C)c1ccc(S(=O)(=O)Nc2ccc(Cl)cc2C(=O)c2ccccc2)cc1
20 | 100 to 1000 | CCCCc1ccc(S(=O)(=O)Nc2ccc(Cl)cc2C(=O)c2ccccc2)cc1
21 | 100 to 1000 | O=C(c1ccccc1)c1cc(Cl)ccc1NS(=O)(=O)c1ccc(-c2cccs2)cc1
22 | 100 to 1000 | O=C(c1ccccc1)c1cc(Cl)ccc1NS(=O)(=O)c1ccc(Nc2cccnc2)cc1
23 | 100 to 1000 | CC(C)(C)c1ccc(S(=O)(=O)Nc2ccc(Cl)cc2C(=O)c2ccc(F)cc2)cc1

Row | IC50 [nM] | Compound
24 | 100 to 1000 | O=C(c1ccccc1)c1cc(Cl)ccc1NS(=O)(=O)c1cccc(F)c1
25 | 100 to 1000 | O=C(c1ccccc1)c1cc(Cl)ccc1NS(=O)(=O)c1ccc(Br)cc1
26 | 100 to 1000 | N#Cc1cccc(S(=O)(=O)Nc2ccc(Cl)cc2C(=O)c2ccccc2)c1
27 | 100 to 1000 | CC(C)c1ccc(S(=O)(=O)Nc2ccc(Cl)cc2C(=O)c2ccccc2)cc1
28 | 100 to 1000 | O=C(c1ccccc1)c1cc(Cl)ccc1NS(=O)(=O)c1ccc(C#Cc2ccccc2)cc1
29 | 100 to 1000 | O=C(c1ccccc1)c1cc(Cl)ccc1NS(=O)(=O)c1ccc2c(c1)CCO2
30 | 100 to 1000 | CC(=O)Nc1ccc(S(=O)(=O)Nc2ccc(Cl)cc2C(=O)c2ccccc2)cc1
31 | 100 to 1000 | COc1ccc(S(=O)(=O)Nc2cc(Br)ccc2C(=O)c2ccccc2)cc1
32 | 100 to 1000 | O=C(c1ccccc1)c1cc(Cl)ccc1NS(=O)(=O)c1ccc(F)cc1
33 | 100 to 1000 | CC(=O)Nc1ccc(S(=O)(=O)Nc2ccc(Cl)cc2C(=O)c2ccccc2)cc1Cl
34 | 100 to 1000 | O=C(c1ccccc1)c1cc(Cl)ccc1NS(=O)(=O)c1ccc(-n2cccn2)cc1
35 | 100 to 1000 | N#Cc1ccc(S(=O)(=O)Nc2ccc(Cl)cc2C(=O)c2ccccc2)cc1
36 | 1000 to 10000 | CCCCOc1ccc(S(=O)(=O)Nc2ccc(Cl)cc2C(=O)c2ccccc2)cc1
37 | 1000 to 10000 | O=C(c1ccccc1)c1cc(Cl)ccc1NS(=O)(=O)c1ccccc1F
38 | 1000 to 10000 | O=C(c1ccccc1)c1cc(Cl)ccc1NS(=O)(=O)c1ccc(Cl)cc1Cl
39 | 1000 to 10000 | COc1ccc(-c2ccc(S(=O)(=O)Nc3ccc(Cl)cc3C(=O)c3ccccc3)cc2)cc1
40 | 1000 to 10000 | O=C(c1ccccc1)c1cc(Cl)ccc1NS(=O)(=O)c1ccc(Cl)c(Cl)c1
41 | 1000 to 10000 | COc1ccc(S(=O)(=O)Nc2ccc(Cl)cc2C(=O)c2ccccc2F)cc1
42 | 1000 to 10000 | COc1ccc(S(=O)(=O)Nc2ccc(OC)cc2C(=O)c2ccccc2)cc1
43 | 1000 to 10000 | COc1cccc(S(=O)(=O)Nc2ccc(Cl)cc2C(=O)c2ccccc2)c1
44 | 1000 to 10000 | COc1ccc(OC)c(S(=O)(=O)Nc2ccc(Cl)cc2C(=O)c2ccccc2)c1
45 | 1000 to 10000 | O=C(c1ccccc1)c1cc(Cl)ccc1NS(=O)(=O)c1cccc(C(F)(F)F)c1

Row | Compound | IC50 [nM]
46 | COc1ccc(S(=O)(=O)Nc2ccc(Cl)cc2C(=O)c2ccccc2)cc1 [drawing 93] | < 100

These compounds were tested on MDR1α-knockout mice (assay: in vivo efficacy study in MDR1α-knockout mice (spontaneous colitis, delay of disease onset)). Conditions: female MDR1α-knockout mice, 50 mg/kg twice a day intraperitoneal, 14 consecutive days.
From the text: The MDR1α-knockout mice, which lack the P-glycoprotein gene, spontaneously develop colitis under specific pathogen-free condition. The pathology in these animals has been characterized as Th1-type T cell-mediated inflammation similar to ulcerative colitis in humans. Disease normally begins to develop at around 8-10 weeks after birth. But the ages at which disease emerges and the ultimate penetrance level often vary considerably among different animal facilities.
In a study using the MDR1α-knockout mice, the known compound shown below was tested for its ability to delay disease onset during a short treatment regimen.
This compound is structurally similar to the claimed modulators (I) of the present invention. Female mice (n=15) were dosed with 50 mg/kg twice a day by intraperitonial injection, starting at age 13 weeks for 14 consecutive days. The study was terminated when the mice reached age 17 weeks at which point the disease penetrance level measured by diarrhea incidence reached 55%. […] This protection extended one to two weeks after treatment stopped (FIG. 1).

Row | Compound | duration of protection after treatment stopped
47 | COc1ccc(S(=O)(=O)Nc2ccc(Cl)cc2C(=O)c2ccccc2)cc1 [drawing 79] | one to two

Same assay, conditions: female MDR1α-knockout mice, 50 mg/kg twice a day intraperitoneal, 14 consecutive days from age 13 weeks

Row | Compound | tolerability
48 | COc1ccc(S(=O)(=O)Nc2ccc(Cl)cc2C(=O)c2ccccc2)cc1 [drawing 79] | well tolerated

Same assay, conditions: female MDR1α-knockout mice, 50 mg/kg twice a day intraperitoneal, 14 consecutive days from age 13 weeks; compared with vehicle

Row | Compound | onset of IBD symptoms (diarrhea incidence)
49 | COc1ccc(S(=O)(=O)Nc2ccc(Cl)cc2C(=O)c2ccccc2)cc1 [drawing 79] | significant delay in the onset of IBD symptoms
